Assay results as given in patent US5874283A, “Mammalian flap-specific endonuclease” (Harrington; John Joseph, priority 1995, dated 1999).
Where two headings read alike, the source gives them in different places.

Columns and labels:
[1] = biological target: T1, FEN-1 (flap endonuclease-1) purified from the nuclear fraction of mouse pre-B cell line 1-8 (Mus musculus, UniProt P39749); conditions: replacement of MgCl2 with 5 mM EDTA
Source text: (§1) FEN-1 was purified from the nuclear fraction of a mouse pre-B cell line. The chromatographic behavior of FEN-1 was monitored using Flap Substrate 1 in the standard FEN-1 endonuclease assay.

[2] = biological target: T1, FEN-1 (flap endonuclease-1) purified from the nuclear fraction of mouse pre-B cell line 1-8; test: biochemical; conditions: read-out: % Activity (endonuclease activity, FEN-1 activity versus divalent metal ion)
Source text: as §1

[3] = biological target: T1, FEN-1 (flap endonuclease-1) purified from the nuclear fraction of mouse pre-B cell line 1-8; test: biochemical; conditions: 0.5 h, read-out: % Activity (exonuclease activity, FEN-1 activity versus divalent metal ion)
Procedure: All purification steps were carried out at 0°-4° C. Six liters of the murine pre-B cell line, 1-8 (Alt et al., 1984), were grown to 2×10^6 cells/ml in RPMI 1640, 10% FBS, 50 μM β-mercaptoethanol (βME), 100 μg/ml penicillin-streptomycin in spinner flasks. Eighteen liters of RPMI 1640 and 100 μg/ml penicillin-streptomycin were then added, and the cells were allowed to grow for an additional 24 h. The cells were harvested at a cell density of 1-1.5×10^6 cells/ml and spun at 1000 g in a Beckman JA-10 rotor for 5 min. The cell pellet was then washed with 500 ml of ice-cold PBS (5 mM NaPi pH 7.4, 137 mM NaCl, 3 mM KCl) supplemented with 1 g/l MgCl2 and pelleted as above. Nuclei were isolated by allowing the cell pellet to swell in 100 ml Buffer A (10 mM HEPES-KOH pH 7.8, 1.5 mM MgCl2, 10 mM KCl, 0.5 mM DTT) for 10 min on ice. The swollen cells were spun for 5 min at 2500 g in a Beckman J6B centrifuge, resuspended in 40 ml Buffer A and homogenized with 20 strokes of the B-pestle in a Dounce homogenizer. The nuclei were collected by centrifugation at 2500 g in a Beckman J6B for 5 min and lysed by adding 40 ml of Buffer B (20 mM EPES-KOH pH 7.8, 0.42M NaCl, 25% glycerol, 1.5 mM MgCl2, 0.2 mM EDTA, 0.5 mM DTT, 0.5 mM PMSF). Nuclear lysis was completed with 20 strokes of the B-pestle in a Dounce homogenizer. […]

T1 sequence (P39749 whole entry): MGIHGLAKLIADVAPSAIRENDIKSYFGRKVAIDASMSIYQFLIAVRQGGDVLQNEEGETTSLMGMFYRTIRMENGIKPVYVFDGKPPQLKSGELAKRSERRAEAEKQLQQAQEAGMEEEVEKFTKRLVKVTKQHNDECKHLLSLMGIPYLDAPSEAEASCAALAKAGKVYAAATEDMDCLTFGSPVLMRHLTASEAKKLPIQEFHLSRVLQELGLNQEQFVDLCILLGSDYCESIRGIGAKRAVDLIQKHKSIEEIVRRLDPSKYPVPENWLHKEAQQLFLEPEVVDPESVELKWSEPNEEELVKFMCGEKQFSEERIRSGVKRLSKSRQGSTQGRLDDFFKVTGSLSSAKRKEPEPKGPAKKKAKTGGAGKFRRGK

O=C(O)CN(CCN(CC(=O)O)CC(=O)O)CC(=O)O [EDTA]
Inhibition of the flap cleavage reaction [1]: completely inhibited | activity at 5000 µM [2]: < 1% | activity at 5000 µM [3]: < 0.5%
